Test results reported in patent publication US20100003228A1, “T-CELL VACCINE” (priority 2006, published 2010).

What was measured:
Assay type in all cases: cell-based, human
[1] = tested on: myelin reactive T cells in PBMCs; assay: Epitope Analysis Assay (EAA): PBMC stimulation with myelin peptide mixes, tritiated thymidine incorporation, SI of at least 3 positive; settings: all 54 subjects tested
Description: The SI may be calculated by comparing [^3H] thymidine incorporation of the sample in the presence of a peptide comprising a portion of an MRTC polypeptide target to that in the presence of a media only control. Briefly, separate aliquots of the sample are plated and incubated in the presence of either a peptide comprising a portion of the polypeptide or a media only control in order to stimulate reactive T cells. The cultures are pulsed with [^3H] thymidine during the last 6-18 hours of incubation. The SI is calculated as the quotient of the mean counts per minute (cpm) of the antigen aliquots/mean cpm of the control aliquots. The SI of autoreactive T cells may be increased by at least a factor of 1.3, 1.4, 1.5, 1.6, 1.7, 1.8, 1.9, 2.0, 2.1, 2.2, 2.3, 2.4, 2.5, 2.6, 2.7. 2.8, 2.9, 3.0, 3.1, 3.2, 3.3, 3.4, 3.5, 3.6, 3.7, 3.8, 3.9, or 4.0 compared to a control.
The peptides in Example 2 were tested in an in vitro PBMC stimulation assay to identify myelin reactive T cells in a patient's blood. Peripheral blood mononuclear cells (PBMCs) were separated from whole blood, washed, counted and plated at 250,000 cells per well in a total of four 96-well plates. Myelin peptide mixes of two overlapping 16-mer peptides were added to triplicate wells of PBMCs with triplicate media only control wells included on each plate and then incubated. After two days of incubation, 20 U/ml of interleukin-2 (IL-2) was added. On the fifth day, the plates were labeled with a radioisotope (tritiated thymidine) and harvested 6 hours later. In this assay, the cells that incorporate tritiated thymidine are representative of T cells being activated and induced to proliferate by the T cell receptor-peptide-MHC complexes. T cells incorporating comparatively more tritiated thymidine than control and experimental cells are more highly activated T cells and are proliferating more rapidly.
Stimulation Indices (SI) were determined for each peptide mix by dividing the mean radiolabel counts per minute (CPM) of the peptide stimulated wells by the mean CPM of the media only control wells averaged across all four plates. An SI of at least 3 was considered positive. FIG. 1 is an example of EAA from one MS patient. Seven of the peptide mixtures were slightly reactive, with the MOGm15 stimulated wells being very reactive. FIGS. 2-4 show the frequency of reactivity to the peptide mixes in 48 patients.

[2] = tested on: myelin reactive T cells in PBMCs; assay: EAA with positivity by Variance Evaluation Method or CPM Variance Method (clinical trials); settings: clinical trial population, RR-MS or CIS subjects
From the text: The predetermined value may also be calculated using a Variance Evaluation Method as follows: • 1. EAAs may be run on a given patient population (minimum of 120 assays from 120 unique subjects) • 2. A “negative population” may be created by averaging all SI values<2.5 • 3. The Standard Deviation (SD) may be calculated for each peptide • 4. The following for each peptide may be then be calculated: • a. Average+1SD • b. Average+2SD • c. Average+3SD • 5. The following SIs may be considered above the predetermined value: • a. SI greater than or equal to the average+3SD • b. Any SI greater than or equal to 2.5
The predetermined value may also be evaluated using a Counts per Minute (CPM) Variance Method. This algorithm may set a comprehensive cutoff for all peptides within a given assay. It may be calculated as follows: • 1. EAAs may be run and the CPM for all control (media only, no antigen) wells averaged. • 2. The SD for CPM of the control wells may then be calculated. • 3. The following may then be calculated for the control wells: • a. Average+1SD • b. Average+2SD • c. Average+3SD • 4. Any peptide with an average CPM greater than or equal to the average+3SD of the control wells may be considered above the predetermined value.
Any peptide, either analyzed in an individual well or as averaged over wells run in triplicate, with an SI≧2.5, an SI≧average+3SD by the Variance Evaluation Method, or an SI≧average+3SD by the CPM variance method may be considered above the predetermined value, which may indicate a T cell(s) positive for reactivity to a peptide.
The peptides of Example 3 have been tested in 429 EAAs in clinical trials as follows. […] Pre-Vaccine EAAs have 158 positive out of 387 assays (40.8%), with Relapse Remitting MS patients (RRMS) showing 150 positive of 368 assays (40.8%), and Clinically Isolated Syndrome (CIS) patients showing 8 positive of 19 assays (42.1%).
Over the course of 6 months a study was conducted with 120 subjects meeting the criteria for the clinical trial.
The above mentioned population of subjects was evaluated by EAA using the Variance Evaluation Method and CPM Variance Method as described above, and deemed eligible for vaccine production. Of the 120 attempts to manufacture vaccine, there were 2 shipping failures (blood was not received within our stated criteria), 1 culture was lost to contamination and 5 samples arrived with low cell volume/yield. Of the remaining 112 subjects, vaccine was successfully generated in 89 subjects, with 22 still in production (98.9% of eligible samples, 92.5% of all samples completed). From this, a positive EAA was deemed predictive of the ability to manufacture a vaccine to therapeutic dose by methods disclosed herein.

myelin-reactive T cells = assay: Growth of myelin reactive T cell lines with low stimulation indices
From the text: Using the algorithms described above, statistically significant SIs as low as 1.3 have been observed and therefore should be able grow in response to antigen. To verify this ability, 5 cell lines across two patients are shown with an SI<2.0. The results are shown in Table 12 and FIG. 24, which indicate growth of these cell lines with only peptide antigen stimulation and common T cell growth factors.
PBMC for subject 1042 were run in the EAA, and […] were positive, including PLPm18 with an SI of 1.8, PLPm26 with an SI of 2.5 and PLPm28 with an SI of 2.5. […] PBMC for subject 1014 were run in the EAA, and 4 mixes were positive, including MBPm14 with an SI of 1.7, PLPm17 with an SI of 1.7, PLPm28 with an SI of 2.2 and MOGm6 with an SI of 1.9. […]
PBMCs were isolated via density gradient centrifugation from peripheral blood obtained through venipuncture into ACD-1 anticoagulant. PBMCs were plated at 2.5E+06 cells/well in 24 well plates. Antigen in the form of 16mer peptides identified in the EAA were added at a final concentration of 20 ug/ml. Interluekin-2 (IL-2) was added at a final concentration of 100 U/ml starting at 48 hours and IL-2 was added at the same concentration with each feeding or splitting of wells. Peptide restimulation in the presence of antigen presenting cells (APCs-autologous PBMCs irradiated at 3500 rad) was done at days 7, 14 and 21. Interleukin-15 (IL-15) was added at a final concentration of 5 ng/ml-20 ng/ml (lot specific) starting at day 14 and continued through the remainder of the culture period. Cells lines were all harvested by day 35 and had achieved expansions of 3.0-8.2 fold.

Row | Substance | subjects tested that were reactive [1] | # of Subjects (frequency of identification) [2] | % of Subjects (frequency of identification) [2] [%] | Fold Expansion (myelin-reactive T cells; subject 1042, Day 0) | Viable Cell Count, Count/well (myelin-reactive T cells; subject 1042, Day 0) | Viable Cell Count, Total Cells (myelin-reactive T cells; subject 1042, Day 0) | Fold Expansion (myelin-reactive T cells; subject 1042, Day 14) | Viable Cell Count, Count/well (myelin-reactive T cells; subject 1042, Day 14) | Viable Cell Count, Total Cells (myelin-reactive T cells; subject 1042, Day 14) | Fold Expansion (myelin-reactive T cells; subject 1042, Day 19) | Viable Cell Count, Count/well (myelin-reactive T cells; subject 1042, Day 19) | Viable Cell Count, Total Cells (myelin-reactive T cells; subject 1042, Day 19) | Fold Expansion (myelin-reactive T cells; subject 1042, Day 26) | Viable Cell Count, Count/well (myelin-reactive T cells; subject 1042, Day 26) | Viable Cell Count, Total Cells (myelin-reactive T cells; subject 1042, Day 26) | Fold Expansion (myelin-reactive T cells; subject 1042, Day 33) | Viable Cell Count, Count/well (myelin-reactive T cells; subject 1042, Day 33) | Viable Cell Count, Total Cells (myelin-reactive T cells; subject 1042, Day 33) | Fold Expansion (myelin-reactive T cells; subject 1042, Day 35) | Viable Cell Count, Count/well (myelin-reactive T cells; subject 1042, Day 35) | further results
1 | PLP 180-199: PLP immunodominant peptide used to prepare vaccines in Example 1 (TWTTCQSIAFPSKTSASIGS; UniProt P60201 180-199, looked up, fragment) | 31% |  |  |  |  |  |  |  |  |  |  |  |  |  |  |  |  |  |  |  | 
2 | PLP 30-49: PLP immunodominant peptide used to prepare vaccines in Example 1 (ALFCGCGHEALTGTEKLIET; UniProt P60201 30-49, looked up, fragment) | 31% |  |  |  |  |  |  |  |  |  |  |  |  |  |  |  |  |  |  |  | 
3 | MBP 151-170: immunodominant peptide of MBP used to prepare vaccines in Example 1 (TASTMDHARHGFLPRHRDTG; UniProt P02686 151-170, looked up, fragment) | Forty-one percent |  |  |  |  |  |  |  |  |  |  |  |  |  |  |  |  |  |  |  | 
4 | PLPm26: mix of PLP 51 and PLP 52 (chain 1 CADARMYGVLPWNAFP; chain 2 RMYGVLPWNAFPGKVC) |  | 28 | 23.5 | 1.0 | 2.50E+06 | 3.00E+07 | 0.6 | 1.50E+06 | 1.80E+07 | 1.0 | 2.40E+06 | 2.88E+07 | 3.0 | 3.73E+06 | 8.95E+07 | 4.2 | 2.61E+06 | 1.25E+08 | 5.7 | 3.54E+06 | Viable Cell Count, Total Cells (myelin-reactive T cells; subject 1042, Day 35): 1.70E+08
5 | PLPm17: mix of PLP 33 and PLP 34 (chain 1 QHQAHSLERVCHCLGK; chain 2 HSLERVCHCLGKWLGH) |  | 14 | 11.8 |  |  |  |  |  |  |  |  |  |  |  |  |  |  |  |  |  | Fold Expansion (myelin-reactive T cells; subject 1014, Day 0): 1.0; Viable Cell Count, Count/well (myelin-reactive T cells; subject 1014, Day 0): 2.50E+06; Viable Cell Count, Total Cells (myelin-reactive T cells; subject 1014, Day 0): 2.25E+07; Fold Expansion (myelin-reactive T cells; subject 1014, Day 17): 0.7; Viable Cell Count, Count/well (myelin-reactive T cells; subject 1014, Day 17): 2.34E+06; Viable Cell Count, Total Cells (myelin-reactive T cells; subject 1014, Day 17): 2.11E+07; Fold Expansion (myelin-reactive T cells; subject 1014, Day 19): 1.2; Viable Cell Count, Count/well (myelin-reactive T cells; subject 1014, Day 19): 3.85E+06; Viable Cell Count, Total Cells (myelin-reactive T cells; subject 1014, Day 19): 3.47E+07; Fold Expansion (myelin-reactive T cells; subject 1014, Day 28): 3.5; Viable Cell Count, Count/well (myelin-reactive T cells; subject 1014, Day 28): 4.77E+06; Viable Cell Count, Total Cells (myelin-reactive T cells; subject 1014, Day 28): 1.05E+08; Fold Expansion (myelin-reactive T cells; subject 1014, Day 33): 2.9; Viable Cell Count, Count/well (myelin-reactive T cells; subject 1014, Day 33): 3.89E+06; Viable Cell Count, Total Cells (myelin-reactive T cells; subject 1014, Day 33): 8.56E+07; Fold Expansion (myelin-reactive T cells; subject 1014, Day 35): 4.7; Viable Cell Count, Count/well (myelin-reactive T cells; subject 1014, Day 35): 4.73E+06; Viable Cell Count, Total Cells (myelin-reactive T cells; subject 1014, Day 35): 1.42E+08
6 | PLPm28: mix of PLP 55 and PLP 56 (chain 1 GKVCGSNLLSICKTAE; chain 2 GSNLLSICKTAEFQMT) |  | 6 | 5.0 | 1.0 | 2.50E+06 | 3.00E+07 | 0.6 | 1.56E+06 | 1.87E+07 | 1.5 | 3.82E+06 | 4.58E+07 | 3.5 | 4.34E+06 | 1.04E+08 | 7.4 | 4.61E+06 | 2.21E+08 | 8.2 | 5.15E+06 | Fold Expansion (myelin-reactive T cells; subject 1014, Day 0): 1.0; Viable Cell Count, Count/well (myelin-reactive T cells; subject 1014, Day 0): 2.50E+06; Viable Cell Count, Total Cells (myelin-reactive T cells; subject 1014, Day 0): 2.25E+07; Fold Expansion (myelin-reactive T cells; subject 1014, Day 17): 0.9; Viable Cell Count, Count/well (myelin-reactive T cells; subject 1014, Day 17): 3.09E+06; Viable Cell Count, Total Cells (myelin-reactive T cells; subject 1014, Day 17): 2.78E+07; Fold Expansion (myelin-reactive T cells; subject 1014, Day 19): 1.4; Viable Cell Count, Count/well (myelin-reactive T cells; subject 1014, Day 19): 2.41E+06; Viable Cell Count, Total Cells (myelin-reactive T cells; subject 1014, Day 19): 4.34E+07; Fold Expansion (myelin-reactive T cells; subject 1014, Day 28): 2.8; Viable Cell Count, Count/well (myelin-reactive T cells; subject 1014, Day 28): 2.81E+06; Viable Cell Count, Total Cells (myelin-reactive T cells; subject 1014, Day 28): 8.43E+07; Fold Expansion (myelin-reactive T cells; subject 1014, Day 33): 5.2; Viable Cell Count, Count/well (myelin-reactive T cells; subject 1014, Day 33): 5.17E+06; Viable Cell Count, Total Cells (myelin-reactive T cells; subject 1014, Day 33): 1.55E+08; Fold Expansion (myelin-reactive T cells; subject 1014, Day 35): 5.3; Viable Cell Count, Count/well (myelin-reactive T cells; subject 1014, Day 35): 5.33E+06; Viable Cell Count, Total Cells (myelin-reactive T cells; subject 1014, Day 35): 1.60E+08; Viable Cell Count, Total Cells (myelin-reactive T cells; subject 1042, Day 35): 2.47E+08
